These results are taken from patent publication US8637496B2, “Compounds having a monogalactosyldiacylglycerol synthase inhibitory activity as herbicide or algaecide, herbicide and algaecide compositions” (Commissariat a l'Energie Atomique, priority 2007, dated 2014).

Where a name gives a salt, the structure may show the parent alone.

The first test concerns the target T1, MGDG synthase in isolated spinach chloroplast envelope membranes (Spinacia oleracea, UniProt Q9SM44).
T1 construct: envelope membranes purified from the lysate by sucrose centrifugation gradient; from tissue; host or cells: envelope membranes of chloroplasts from spinach leaves
T1 sequence (Q9SM44 99-522): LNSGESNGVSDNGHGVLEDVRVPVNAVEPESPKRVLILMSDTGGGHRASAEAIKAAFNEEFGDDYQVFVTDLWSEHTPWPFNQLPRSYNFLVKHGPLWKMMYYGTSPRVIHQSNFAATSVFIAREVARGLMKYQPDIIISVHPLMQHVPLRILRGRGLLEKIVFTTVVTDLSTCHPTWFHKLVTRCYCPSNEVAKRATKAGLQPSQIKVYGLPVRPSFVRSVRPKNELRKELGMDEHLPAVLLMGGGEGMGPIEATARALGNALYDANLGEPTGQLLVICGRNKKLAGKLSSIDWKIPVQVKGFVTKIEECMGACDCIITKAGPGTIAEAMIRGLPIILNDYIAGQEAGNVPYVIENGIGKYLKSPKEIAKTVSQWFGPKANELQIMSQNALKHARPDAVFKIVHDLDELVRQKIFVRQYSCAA
Briefly: MGDG synthase activity in envelope membrane fractions isolated from spinach chloroplasts.
Details: not given
It is filed as biochemical. From the text:
All the operations have been carried out as described in the article by Maréchal, E. et al., J. Biol. Chem., 1995, 270, 5714-5722. Crude chloroplasts were obtained from 3-4 kg of spinach leaves and purified by isopycnic centrifugation using Percoll gradients. Purified intact chloroplasts have then been lysed in hypotonic medium and envelope membranes purified from the lysate by sucrose centrifugation gradient as described in the article by Douce, R. and Joyard, J., (1982) in Methods in Chloroplast Molecular Biology (Edelman, M., Hallick R and Chua N H eds), pp 239-256, Elsevier Science Publishers B.V. Amsterdam.
MGDG synthase activity was assayed as described in the article by Maréchal et al. (1995).
In turn, `C[C@@H](COC(=O)N1CCC(n2c(=O)[nH]c3ccccc32)CC1)N(Cc1ccccc1)Cc1cc2ccccc2c2ccccc12` [Compound 61, (S)-2-(benzyl(phenanthren-9-ylmethyl)amino)propyl 4-(2-oxo-2,3-dihydro-1H-benzo[d]imidazol-1-yl)piperidine-1-carboxylate hydrochloride] had an IC50 of 25 µM.

Still in this test, the particulars now being: Table 1, obtained in the same manner as FIG. 4; read-out: Inhibitory effect on MGDG synthesis in isolated spinach chloroplast envelope membranes.
With `CC(C)(COC(=O)N1CCC(n2c(=O)[nH]c3ccccc32)CC1)N(Cc1ccccc1)Cc1ccccc1` [Compound 33, 2-(dibenzylamino)-2-methylpropyl 4-(1,2-dihydro-2-oxobenzo[d]imidazol-3-yl)piperidine-1-carboxylate], the IC50 was determined as 50 µM.
In the case of `C[C@@H](COC(=O)N1CCC(n2cnc3ccccc32)CC1)N(Cc1ccccc1)Cc1ccccc1` [Compound 1, (S)-2-(dibenzylamino)propyl 4-(1H-benzo[d]imidazol-1-yl)piperidine-1-carboxylate], the IC50 lay within 100 to 500 µM.
As for `O=C(OCCN(Cc1ccccc1)Cc1ccc(F)cc1)N1CCC(n2c(=O)[nH]c3ccccc32)CC1` [Compound 45, 2-(benzyl(4-fluorobenzyl)amino)ethyl 4-(2-oxo-2,3-dihydro-1H-benzo[d]imidazol-1-yl)piperidine-1-carboxylate hydrochloride], the IC50 was 5 µM.
The same measure, in the same setting: with `CN(CCOC(=O)N1CCC(n2c(=O)[nH]c3ccccc32)CC1)Cc1ccccc1` [Compound 9, 2-(N-benzyl-N-methylamino)ethyl 4-(1,2-dihydro-2-oxobenzo[d]imidazol-3-yl)piperidine-1-carboxylate] the figure was 100 to 500 µM; with `O=C(OCCN1C(=O)c2ccccc2C1=O)N1CCC(n2c(=O)[nH]c3ccccc32)CC1` [Compound 15, 2-(1,3-dioxoisoindolin-2-yl)ethyl 4-(1,2-dihydro-2-oxobenzo[d]imidazol-3-yl)piperidine-1-carboxylate], 45 µM.
On to `C[C@@H](COC(=O)N1CCC(n2c(=O)[nH]c3ccccc32)CC1)N(Cc1ccccc1)Cc1cccc2ccccc12` [Compound 62, (S)-2-(benzyl(naphthalen-1-ylmethyl)amino)propyl 4-(2-oxo-2,3-dihydro-1H-benzo[d]imidazol-1-yl)piperidine-1-carboxylate hydrochloride], for which the IC50 stood at 25 µM.
On to `CC(C)C[C@@H](COC(=O)N1CCC(n2c(=O)[nH]c3ccccc32)CC1)NCc1ccccc1` [Compound 87, (S)-2-(benzylamino)-4-methylpentyl 4-(2-oxo-2,3-dihydro-1H-benzo[d]imidazol-1-yl)piperidine-1-carboxylate], for which the IC50 was 45 µM.
As to `O=C(OCCN(Cc1ccccc1)Cc1ccncc1)N1CCC(n2c(=O)[nH]c3ccccc32)CC1` [Compound 44, 2-(benzyl(pyridin-4-ylmethyl)amino)ethyl 4-(2-oxo-2,3-dihydro-1H-benzo[d]imidazol-1-yl)piperidine-1-carboxylate], the IC50 is 45 µM.
Same read-out and setting: the same measure for `CC(C)[C@@H](COC(=O)N1CCC(n2c(=O)[nH]c3ccccc32)CC1)N(Cc1ccccc1)Cc1ccccc1` [Compound 29, (S)-2-(dibenzylamino)-3-methylbutyl 4-(1,2-dihydro-2-oxobenzo[d]imidazol-3-yl)piperidine-1-carboxylate]: 8 µM; for `O=C(OCCCN(Cc1ccccc1)Cc1ccccn1)N1CCC(n2c(=O)[nH]c3ccccc32)CC1` [Compound 59, 3-(benzyl(pyridin-2-ylmethyl)amino)propyl 4-(2-oxo-2,3-dihydro-1H-benzo[d]imidazol-1-yl)piperidine-1-carboxylate hydrochloride]: 15 µM; for `O=C(OCCCN(Cc1ccccc1)Cc1ccc(Cl)cc1)N1CCC(n2c(=O)[nH]c3ccccc32)CC1` [Compound 83, 3-(benzyl(4-chlorobenzyl)amino)propyl 4-(2-oxo-2,3-dihydro-1H-benzo[d]imidazol-1-yl)piperidine-1-carboxylate]: 12 µM.
Same read-out and setting: with `C[C@@H](COC(=O)N1CCC(n2c(=O)[nH]c3ccccc32)CC1)N(Cc1ccccc1)Cc1ccco1` [Compound 79, (S)-2-(benzyl(furan-2-ylmethyl)amino)propyl 4-(2-oxo-2,3-dihydro-1H-benzo[d]imidazol-1-yl)piperidine-1-carboxylate] the figure was 25 µM; with `O=C(OCCN(Cc1ccccc1)Cc1ccccc1OCc1ccccc1)N1CCC(n2c(=O)[nH]c3ccccc32)CC1` [Compound 76, 2-(benzyl(2-(benzyloxy)benzyl)amino)ethyl 4-(2-oxo-2,3-dihydro-1H-benzo[d]imidazol-1-yl)piperidine-1-carboxylate], 20 µM; with `CC(COC(=O)N1CCC(n2c(=O)[nH]c3ccccc32)CC1)N(CCCOCc1ccccc1)Cc1ccccc1` (stereo not drawn) [Compound 89, 2-(benzyl(3-(benzyloxy)propyl)amino)propyl 4-(2-oxo-2,3-dihydro-1H-benzo[d]imidazol-1-yl)piperidine-1-carboxylate], 40 µM.
Consider `CC(C)(C)C(COC(=O)N1CCC(n2c(=O)[nH]c3ccccc32)CC1)N(Cc1ccccc1)Cc1ccccc1` (stereo not drawn) [Compound 31, 2-(dibenzylamino)-3,3-dimethylbutyl 4-(1,2-dihydro-2-oxobenzo[d]imidazol-3-yl)piperidine-1-carboxylate], for which the IC50 was 50 µM.
Same read-out and setting: with `O=C(OCCCN(Cc1ccccc1)Cc1cccc2ccccc12)N1CCC(n2c(=O)[nH]c3ccccc32)CC1` [Compound 70, 3-(benzyl(naphthalen-1-ylmethyl)amino)propyl 4-(2-oxo-2,3-dihydro-1H-benzo[d]imidazol-1-yl)piperidine-1-carboxylate hydrochloride] the figure was 60 µM.
For the compound `O=C(OCCCN(Cc1ccccc1)Cc1ccoc1)N1CCC(n2c(=O)[nH]c3ccccc32)CC1` [Compound 80, 3-(benzyl(furan-3-ylmethyl)amino)propyl 4-(2-oxo-2,3-dihydro-1H-benzo[d]imidazol-1-yl)piperidine-1-carboxylate], the IC50 was found to be 50 µM.
For `C[C@@H](COC(=O)N1CCC(n2c(=S)[nH]c3ccccc32)CC1)N(Cc1ccccc1)Cc1ccccc1` [Compound 25, (S)-2-(dibenzylamino)propyl 4-(1,2-dihydro-2-thioxobenzo[d]imidazol-3-yl)piperidine-1-carboxylate], the IC50 fell in the range of 100 to 500 µM.
In the case of `C[C@@H](COC(=O)N1CCC(n2c(=O)[nH]c3ccccc32)CC1)N(Cc1ccccc1)Cc1cccs1` [Compound 63, (S)-2-(benzyl(thiophen-2-ylmethyl)amino)propyl 4-(2-oxo-2,3-dihydro-1H-benzo[d]imidazol-1-yl)piperidine-1-carboxylate hydrochloride], the IC50 was determined as 30 µM.
Consider `C[C@@H](COC(=O)N1CCC(n2c(=O)[nH]c3ccccc32)CC1)N(Cc1ccccc1)Cc1ccc(Br)cc1` [Compound 41, (S)-2-(benzyl(4-bromobenzyl)amino)propyl 4-(2-oxo-2,3-dihydro-1H-benzo[d]imidazol-1-yl)piperidine-1-carboxylate hydrochloride], for which the IC50 was determined as 50 µM.
As to `COc1cccc(CN(CCCOC(=O)N2CCC(n3c(=O)[nH]c4ccccc43)CC2)Cc2ccccc2)c1` [Compound 68, 3-(benzyl(3-methoxybenzyl)amino)propyl 4-(2-oxo-2,3-dihydro-1H-benzo[d]imidazol-1-yl)piperidine-1-carboxylate hydrochloride], the IC50 was found to be 80 µM.
Consider `O=C(OCCCN(Cc1ccccc1)Cc1cccc(OCc2ccccc2)c1)N1CCC(n2c(=O)[nH]c3ccccc32)CC1` [Compound 84, 3-(benzyl(3-(benzyloxy)benzyl)amino)propyl 4-(2-oxo-2,3-dihydro-1H-benzo[d]imidazol-1-yl)piperidine-1-carboxylate], for which the IC50 was 45 µM.
In the case of `O=C(OCCN(CCCc1ccccc1)Cc1ccccc1)N1CCC(n2c(=O)[nH]c3ccccc32)CC1` [Compound 46, 2-(benzyl(3-phenylpropyl)amino)ethyl 4-(2-oxo-2,3-dihydro-1H-benzo[d]imidazol-1-yl)piperidine-1-carboxylate hydrochloride], the IC50 came out at 15 µM.
Take `CC(CCOC(=O)N1CCC(n2c(=O)[nH]c3ccccc32)CC1)N(Cc1ccccc1)Cc1ccccc1` (stereo not drawn) [Compound 32, 3-(dibenzylamino)butyl 4-(1,2-dihydro-2-oxobenzo[d]imidazol-3-yl)piperidine-1-carboxylate]: the IC50 is 35 µM.
`O=C(OCCN(C/C=C/c1ccccc1)Cc1ccccc1)N1CCC(n2c(=O)[nH]c3ccccc32)CC1` [Compound 82, (E)-2-(benzyl(cinnamyl)amino)ethyl 4-(2-oxo-2,3-dihydro-1H-benzo[d]imidazol-1-yl)piperidine-1-carboxylate]: the IC50 was 50 µM.
As for `O=C(OCC(Cc1ccccc1)NCc1ccccc1)N1CCC(n2c(=O)[nH]c3ccccc32)CC1` (stereo not drawn) [Compound 88, 2-(benzylamino)-3-phenylpropyl 4-(2-oxo-2,3-dihydro-1H-benzo[d]imidazol-1-yl)piperidine-1-carboxylate], the IC50 was 60 µM.
